The values that follow come from ChEMBL document CHEMBL3751687, “Design and synthesis of calindol derivatives as potent and selective calcium sensing receptor agonists” (Bioorg Med Chem, 2016).

The target in series [1] is T1, Extracellular calcium-sensing receptor (Rattus norvegicus) (UniProt P48442).
T1 sequence (whole entry): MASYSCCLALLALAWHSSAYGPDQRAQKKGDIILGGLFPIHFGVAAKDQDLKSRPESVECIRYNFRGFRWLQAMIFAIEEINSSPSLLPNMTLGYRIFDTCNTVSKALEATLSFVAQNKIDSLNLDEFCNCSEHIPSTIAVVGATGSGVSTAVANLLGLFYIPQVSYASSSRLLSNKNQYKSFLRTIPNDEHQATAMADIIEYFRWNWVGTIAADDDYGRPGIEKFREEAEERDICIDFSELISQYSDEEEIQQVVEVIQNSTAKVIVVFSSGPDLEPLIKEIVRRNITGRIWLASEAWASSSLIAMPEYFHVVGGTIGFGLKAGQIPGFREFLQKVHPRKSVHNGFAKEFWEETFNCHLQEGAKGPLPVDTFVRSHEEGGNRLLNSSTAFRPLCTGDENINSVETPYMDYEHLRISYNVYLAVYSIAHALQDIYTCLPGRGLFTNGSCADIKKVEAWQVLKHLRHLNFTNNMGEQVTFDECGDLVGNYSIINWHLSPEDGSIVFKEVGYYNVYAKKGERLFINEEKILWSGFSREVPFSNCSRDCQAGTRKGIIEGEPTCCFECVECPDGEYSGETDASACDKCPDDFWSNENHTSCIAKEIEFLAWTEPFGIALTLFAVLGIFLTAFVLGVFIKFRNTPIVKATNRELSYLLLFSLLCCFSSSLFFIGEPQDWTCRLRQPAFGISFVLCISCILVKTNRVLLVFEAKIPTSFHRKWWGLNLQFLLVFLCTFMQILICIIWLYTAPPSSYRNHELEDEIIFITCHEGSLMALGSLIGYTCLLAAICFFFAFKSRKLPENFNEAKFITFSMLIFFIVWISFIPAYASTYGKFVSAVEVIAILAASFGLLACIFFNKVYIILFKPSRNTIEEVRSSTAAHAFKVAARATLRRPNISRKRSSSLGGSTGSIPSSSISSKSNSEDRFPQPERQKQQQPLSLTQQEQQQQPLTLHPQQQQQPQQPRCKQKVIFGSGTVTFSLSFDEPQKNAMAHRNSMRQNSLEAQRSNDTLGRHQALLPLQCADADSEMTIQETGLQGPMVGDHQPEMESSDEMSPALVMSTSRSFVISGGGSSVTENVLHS
Kind of series: Agonist activity at rat brain CaSR expressed in CHO cells assessed as inositol phosphate production at 10 uM in presence of 2 mM extracellular Ca2+ by IP-one assay. Type of series: functional, cell-based.

Series [2] addresses T1, Extracellular calcium-sensing receptor (Rattus norvegicus). Kind of series: Agonist activity at rat brain CaSR expressed in CHO cells assessed as inositol phosphate production at 3 uM in presence of 3 mM extracellular Ca2+ by IP-one assay. Type of series: functional, cell-based.
Series [3] has the same target. The experiment in a line: Agonist activity at rat brain CaSR expressed in CHO cells assessed as inositol phosphate production at 3 uM in presence of 2 mM extracellular Ca2+ by IP-one assay. Type of series: functional, cell-based.
The test system of the next series is HEK293. Kind of series: Effect on inositol phosphate production in HEK293 cells in absence of L-Ornithine. Type of series: ADME, cell-based. The note with it: human.
Series [4] addresses T1, Extracellular calcium-sensing receptor (Rattus norvegicus). The experiment in a line: Agonist activity at rat brain CaSR expressed in CHO cells assessed as inositol phosphate production at 0.1 uM in presence of 3 mM extracellular Ca2+ by IP-one assay. Type of series: functional, cell-based.
For series [5], the target named is T2, G-protein coupled receptor family C group 6 member A (Mus musculus) (UniProt Q8K4Z6).
T2 sequence (whole entry): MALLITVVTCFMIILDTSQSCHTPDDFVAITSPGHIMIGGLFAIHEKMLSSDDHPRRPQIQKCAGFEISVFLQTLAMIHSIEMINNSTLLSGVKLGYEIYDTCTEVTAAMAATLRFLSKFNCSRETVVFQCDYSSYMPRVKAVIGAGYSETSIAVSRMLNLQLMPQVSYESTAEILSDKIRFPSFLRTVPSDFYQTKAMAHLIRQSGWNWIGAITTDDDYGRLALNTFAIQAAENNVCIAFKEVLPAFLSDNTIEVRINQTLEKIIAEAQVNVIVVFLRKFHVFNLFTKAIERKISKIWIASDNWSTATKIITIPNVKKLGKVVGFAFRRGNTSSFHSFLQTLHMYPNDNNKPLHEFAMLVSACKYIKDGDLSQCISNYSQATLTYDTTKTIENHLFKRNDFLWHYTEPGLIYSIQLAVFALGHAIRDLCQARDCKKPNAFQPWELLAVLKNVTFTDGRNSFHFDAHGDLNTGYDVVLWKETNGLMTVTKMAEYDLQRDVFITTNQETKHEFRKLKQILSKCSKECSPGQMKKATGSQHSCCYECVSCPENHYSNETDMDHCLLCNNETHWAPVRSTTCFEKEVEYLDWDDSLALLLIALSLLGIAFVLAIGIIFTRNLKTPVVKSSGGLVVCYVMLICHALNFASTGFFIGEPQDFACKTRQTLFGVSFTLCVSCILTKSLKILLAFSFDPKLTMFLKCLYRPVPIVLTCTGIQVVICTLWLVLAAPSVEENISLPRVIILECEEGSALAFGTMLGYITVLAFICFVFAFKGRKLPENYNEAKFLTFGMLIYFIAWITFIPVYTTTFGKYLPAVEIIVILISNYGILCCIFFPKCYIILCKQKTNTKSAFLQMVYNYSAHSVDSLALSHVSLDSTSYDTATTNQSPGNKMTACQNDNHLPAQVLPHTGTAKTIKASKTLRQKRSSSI
The experiment in a line: Inhibition of L-Ornithine-stimulated wild type mouse GPRC6A expressed in HEK293 cells coexpressing GalphaqG66D assessed as increase in [3H] inositol phosphate production at 10 uM incubated for 30 mins in presence of 2 mM extracellular Ca2+. In kind it is functional, cell-based.

Series [6] concerns the target T3, Extracellular calcium-sensing receptor (Rattus norvegicus, UniProt P48442).
T3 sequence (P48442 whole entry): T1 sequence (whole entry)
Kind of series: Agonist activity at rat brain CaSR expressed in CHO cells assessed as inositol phosphate production in presence of 3 mM extracellular Ca2+ by IP-one assay. In kind it is functional, cell-based.

The target in series [7] is T1, Extracellular calcium-sensing receptor (Rattus norvegicus). The experiment in a line: Agonist activity at rat brain CaSR expressed in CHO cells assessed as inositol phosphate production at 10 uM in presence of 3 mM extracellular Ca2+ by IP-one assay. Type of series: functional, cell-based.

The source made the active and inactive calls. The calls are words filed in the database; no cut-off is given here.

Regarding `Cc1ccc([C@@H](C)NCc2cc3ccccc3[nH]2)cc1`, the Activity in series [1] stood at 29%.
For `CC(NCc1cc2ccccc2[nH]1)c1cccc(Br)c1` (racemic), the Activity in series [2] came out at 49%.
For the compound `C[C@@H](NCc1cc2cc(S(C)(=O)=O)ccc2[nH]1)c1cccc2ccccc12`, in series [2], the Activity amounted to 54%.
Regarding `COc1cc(OC)c2cc(CN[C@H](C)c3cccc4ccccc34)[nH]c2c1`, the Activity in series [1] is 94%; in series [3] it was 53%.
For `COc1ccc2cc(CN[C@H](C)c3cccc4ccccc34)[nH]c2c1`, in that order: 76% and 33%.
Take `C[C@@H](NCc1cc2cccc([N+](=O)[O-])c2[nH]1)c1cccc2ccccc12`: the Activity result in the series on HEK293 is “Non-toxic”; in series [4] it was 70%; in series [2], 102%. For the same compound, the inhibition result in series [5] was “inactive”. In addition, in series [6], the EC50 came out at 20 nM.
For the compound `C[C@@H](NCc1[nH]c2ccccc2c1-c1ccccc1)c1cccc2ccccc12`, in series [7], the Activity turned out to be 55%.
`C[C@@H](NCc1cc2c(O)cccc2[nH]1)c1cccc2ccccc12`: in series [2], the Activity stood at 88%. Moreover, the EC50 in series [6] came out at 102 nM.
For the compound `C[C@@H](NCc1cc2cc(OCc3ccccc3)ccc2[nH]1)c1cccc2ccccc12`, the Activity in series [2] is 23%.
Turning to `C[C@@H](NCc1cc2cc(O)ccc2[nH]1)c1cccc2ccccc12`, the Activity in series [2] was 92%. Further, in series [6], the EC50 was determined as 112 nM.
`Cc1ccc2[nH]c(CN[C@H](C)c3cccc4ccccc34)cc2c1`: the Activity is 69% in series [1] and 1% in series [3].
Consider `COc1cccc([C@@H](C)NCc2cc3ccccc3[nH]2)c1`, for which, in series [1], the Activity came to 54%.
As to `C[C@@H](NCc1cc2cc([N+](=O)[O-])ccc2[nH]1)c1cccc2ccccc12`, the Activity in series [2] was determined as 30%.
As for `CC(NCc1cc2ccccc2[nH]1)c1ccc(-c2ccccc2)cc1` (racemic), the figures for the Activity in series [2] and in series [7] were 2% and 1%, respectively.
Turning to `C[C@@H](NCc1cc2cccc(-c3ccccc3)c2[nH]1)c1cccc2ccccc12`, in series [2], the Activity came out at 79%.
In the case of `CC(NCc1cc2ccccc2[nH]1)c1ccc(F)c2ccccc12` (racemic), the Activity entry in the series with HEK293 was “Non-toxic”; in series [2] it was 89%. Also, the inhibition result in series [5] is “inactive”. In series [6], the EC50 came to 131 nM.
For the compound `C[C@@H](NCc1cc2c(-c3ccccc3)cccc2[nH]1)c1cccc2ccccc12`, the Activity entry in the series with HEK293 was “Non-toxic”; in series [2] it was 85%; in series [7] it was 102%. The inhibition entry in series [5] is “inactive”. The EC50 in series [6] was 136 nM.
`COc1cccc2[nH]c(CN[C@H](C)c3cccc4ccccc34)cc12`: the figures for the Activity in series [1] and in series [3] were 95% and 63%, respectively.
Regarding `C[C@@H](NCc1[nH]c2ccccc2c1Br)c1cccc2ccccc12`, the Activity in series [2] stood at 21%.
Turning to `C[C@@H](NC1CCCc2c1[nH]c1ccccc21)c1cccc2ccccc12` (mixture of isomers), the Activity in series [7] came to 67%.
As for `C[C@@H](NCc1cc2cc(F)ccc2[nH]1)c1cccc2ccccc12`, the Activity in series [1] was 74%; in series [3] it was 30%.
As to `C[C@@H](NCc1cc2ccccc2[nH]1)c1cccc2ccccc12` [CALINDOL], in series [5], the inhibition turned out to be 35%. Further, the Activity in series [1] stood at 103%; in series [3] it was 73%; in series [2] it was 83%; in series [7], 100%. For the same compound, the EC50 in series [6] was 132 nM.
For the compound `C[C@@H](NCc1cc2ccccc2[nH]1)c1ccccc1`, in series [1], the Activity came to 34%.
For the compound `C[C@@H](NCc1cc2cccc(O)c2[nH]1)c1cccc2ccccc12`, the Activity in series [2] turned out to be 55%; in series [7], 83%.
On the same counts, the results for `CC(NCc1cc2ccccc2[nH]1)c1ccccc1O` (racemic) are 1% and 1%.
Turning to `C[C@@H](NCc1cc2ccccc2[nH]1)c1ccc(Br)cc1`, the Activity in series [2] was 26%.
Still for that read-out and setting: next, `COc1cc2cc(CN[C@H](C)c3cccc4ccccc34)[nH]c2c(OC)c1OC`: 40%; `C[C@@H](NCc1cc2ccccc2[nH]1)c1ccc(F)cc1`: 30%.
As to `COc1ccc([C@@H](C)NCc2cc3ccccc3[nH]2)cc1`, in series [1], the Activity amounted to 27%.
